Measured values reported in patent publication US20230089073A1 (Carmot Therapeutics, Inc., priority 2021, published 2023).

Target: T1, human GLP-1 receptor (Homo sapiens, UniProt P43220)
T1 construct: expressed in transfected cells
Assay: GLP-1R cAMP Assay
Type: cell-based
Details: cAMP accumulation in CHO cells stably overexpressing the human GLP-1 receptor; 30 min treatment; HitHunter cAMP kit; read-out: EC50
Procedure, shortened: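 Luminescent enzyme-complementation detection of cAMP, read after cell lysis and overnight incubation, with dose-response curve fitting. Stimulation lasted 30 min, using 20-point triplicate dosing on CHO cells (10,000 per well) stably overexpressing human GLP-1R.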

T1 sequence (P43220 24-463): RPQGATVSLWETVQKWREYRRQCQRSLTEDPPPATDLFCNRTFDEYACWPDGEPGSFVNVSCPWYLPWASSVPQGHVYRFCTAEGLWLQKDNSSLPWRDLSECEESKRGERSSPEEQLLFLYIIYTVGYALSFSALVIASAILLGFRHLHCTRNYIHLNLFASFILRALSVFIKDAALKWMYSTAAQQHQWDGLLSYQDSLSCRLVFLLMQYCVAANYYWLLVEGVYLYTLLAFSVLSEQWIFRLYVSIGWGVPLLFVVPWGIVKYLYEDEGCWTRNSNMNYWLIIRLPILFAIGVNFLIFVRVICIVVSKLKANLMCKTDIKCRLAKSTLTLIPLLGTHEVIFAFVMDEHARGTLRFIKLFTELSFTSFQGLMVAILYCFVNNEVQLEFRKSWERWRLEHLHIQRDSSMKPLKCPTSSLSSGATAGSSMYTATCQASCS

Structure (SMILES) | EC50
O=C(O)c1ccc2nc(CN3CCC(Oc4ccnc(COc5ccc(Cl)cc5Cl)c4)CC3)n(C[C@@H]3CCO3)c2c1 [Compound 168, 2-{[4-({2-[(2,4-dichlorophenoxy)methyl]pyridin-4-yl}oxy)piperidin-1-yl]methyl}-1-{[(2S)-oxetan-2-yl]methyl}-1H-1,3-benzodiazole-6-carboxylic acid] | < 50 nM
N#CCC1(Cn2c(CN3CCC(Oc4ccnc(COc5ccc(C(F)F)cc5F)c4)CC3)nc3ccc(C(=O)O)cc32)CC1 [Compound 362] | < 50 nM
CC(Oc1ccc(C#N)cc1F)c1nccc(OC2CCN(Cc3nc4ccc(C(=O)O)cc4n3C[C@@H]3CCO3)CC2)n1 (mixture of isomers) [Example 480, 2-((4-((2-(1-(4-Cyano-2-fluorophenoxy)ethyl)pyrimidin-4-yl)oxy)piperidin-1-yl)methyl)-1-(((S)-oxetan-2-yl)methyl)-1H-benzo[d]imidazole-6-carboxylic acid] | 50 to 500 nM
COC1(Cn2c(CN3CCC(Oc4ccnc(COc5ccc(Cl)cc5F)c4)CC3)nc3ccc(C(=O)O)cc32)CC1 [Example 368, 2-((4-((2-((4-Chloro-2-fluorophenoxy)methyl)pyridin-4-yl)oxy)piperidin-1-yl)methyl)-1-((1-methoxycyclopropyl)methyl)-1H-benzo[d]imidazole-6-carboxylic acid] | < 50 nM
Cn1cncc1Cn1c(CN2CCC(Oc3ccnc(COc4ccc(Cl)cc4F)c3)CC2)nc2ccc(C(=O)O)cc21 [Compound 267, 2-{[4-({2-[(4-chloro-2-fluorophenoxy)methyl]pyridin-4-yl}oxy)piperidin-1-yl]methyl}-1-[(1-methyl-1H-imidazol-5-yl)methyl]-1H-1,3-benzodiazole-6-carboxylic acid] | < 50 nM
N#Cc1ccc(COc2cccc(C3CCN(C(=O)c4ccc(-c5nnn[nH]5)nc4)CC3)n2)c(F)c1 [Example 83, 4-(((6-(1-(6-(1H-Tetrazol-5-yl)nicotinoyl)piperidin-4-yl)pyridin-2-yl)oxy)methyl)-3-fluorobenzonitrile] | < 50 nM
Cc1ccc(NCc2cccc(C(=O)N3CCN(Cc4nc5ccc(C(=O)O)cc5n4C[C@@H]4CCO4)CC3)c2)c(Cl)c1 [Compound 80, 2-{[4-(3-{[(2-chloro-4-methylphenyl)amino]methyl}benzoyl)piperazin-1-yl]methyl}-1-{[(2S)-oxetan-2-yl]methyl}-1H-1,3-benzodiazole-6-carboxylic acid] | > 500 nM
O=C(O)c1cc(F)c2nc(CN3CCC(Oc4ccnc(COc5ccc(F)cc5F)n4)CC3)n(C[C@@H]3CCO3)c2c1 [Compound 482, 2-{[4-({2-[(2,4-difluorophenoxy)methyl]pyrimidin-4-yl}oxy)piperidin-1-yl]methyl}-4-fluoro-1-{[(2S)-oxetan-2-yl]methyl}-1H-1,3-benzodiazole-6-carboxylic acid] | < 50 nM
O=C(O)c1ccc2nc(CN3CCC(Oc4ccnc(COc5ccc(F)cc5Cl)c4)CC3)n(C[C@@H]3CCO3)c2c1 [Example 220, (S)-2-((4-((2-((2-Chloro-4-fluorophenoxy)methyl)pyridin-4-yl)oxy)piperidin-1-yl)methyl)-1-(oxetan-2-ylmethyl)-1H-benzo[d]imidazole-6-carboxylic acid] | < 50 nM
O=C(O)c1ccc2nc(CN3CCN(C(=O)c4ccc(COc5ccc(Cl)cc5)o4)CC3)n(C[C@@H]3CCO3)c2c1 [Compound 31, 2-[(4-{5-[(4-chlorophenoxy)methyl]furan-2-carbonyl}piperazin-1-yl)methyl]-1-{[(2S)-oxetan-2-yl]methyl}-1H-1,3-benzodiazole-6-carboxylic acid] | > 500 nM
Cc1cc(C(=O)O)cc2c1nc(CN1CCC(Oc3ccnc(COc4ccc(C#N)cc4F)n3)CC1)n2C[C@@H]1CCO1 [Compound 484, 2-{[4-({2-[(4-cyano-2-fluorophenoxy)methyl]pyrimidin-4-yl}oxy)piperidin-1-yl]methyl}-4-methyl-1-{[(2S)-oxetan-2-yl]methyl}-1H-1,3-benzodiazole-6-carboxylic acid] | < 50 nM
O=C(O)c1ccc2nc(CN3CCc4[nH]c5c(OCc6ccc(Cl)cc6F)cccc5c4C3)n(C[C@@H]3CCO3)c2c1 [Example 90, (S)-2-((6-((4-Chloro-2-fluorobenzyl)oxy)-1,3,4,5-tetrahydro-2H-pyrido[4,3-b]indol-2-yl)methyl)-1-(oxetan-2-ylmethyl)-1H-benzo[d]imidazole-6-carboxylic acid] | > 500 nM
CCn1cncc1Cn1c(CN2CCC(C)(Cc3ccnc(COc4ccc(Cl)cc4Cl)c3)CC2)nc2ccc(C(=O)O)cc21 [Example 163, 2-((4-((2-((2,4-Dichlorophenoxy)methyl)pyridin-4-yl)methyl)-4-methylpiperidin-1-yl)methyl)-1-((1-ethyl-1H-imidazol-5-yl)methyl)-1H-benzo[d]imidazole-6-carboxylic acid] | < 50 nM
Cc1cc(C(=O)O)cc2c1nc(CN1CC[C@H](Oc3ccnc(COc4ccc(C#N)cc4F)c3)C[C@@H]1C)n2C[C@@H]1CCO1 [Compound 503, 2-{[(2S,4S)-4-({2-[(4-cyano-2-fluorophenoxy)methyl]pyridin-4-yl}oxy)-2-methylpiperidin-1-yl]methyl}-4-methyl-1-{[(2S)-oxetan-2-yl]methyl}-1H-1,3-benzodiazole-6-carboxylic acid] | < 50 nM
CCn1cncc1Cn1c(CN2CCC(CO)(Cc3ccnc(COc4ccc(Cl)cc4Cl)c3)CC2)nc2ccc(C(=O)O)cc21 [Example 150, 2-((4-((2-((2,4-Dichlorophenoxy)methyl)pyridin-4-yl)methyl)-4-(hydroxymethyl)piperidin-1-yl)methyl)-1-((1-ethyl-1H-imidazol-5-yl)methyl)-1H-benzo[d]imidazole-6-carboxylic acid] | < 50 nM
O=C(O)c1ccc2nc(CN3CCC(Oc4ccnc(COc5ncc(Cl)cc5F)c4)CC3)n(C[C@@H]3CCO3)c2c1 [Compound 308] | < 50 nM
N#Cc1ccc(OCc2cc(OC3CCN(Cc4nc5ccc(C(=O)O)cc5n4C[C@@H]4CCO4)CC3)c(F)cn2)c(F)c1 [Example 367, (S)-2-((4-((2-((4-Cyano-2-fluorophenoxy)methyl)-5-fluoropyridin-4-yl)oxy)piperidin-1-yl)methyl)-1-(oxetan-2-ylmethyl)-1H-benzo[d]imidazole-6-carboxylic acid] | < 50 nM
O=C(O)c1ccc2nc(CN3CCC(Oc4ccnc(COc5ccc(Cl)cc5F)c4)CC3)n(CC34CC(CO3)C4)c2c1 [Compound 333] | < 50 nM
CCn1cncc1Cn1c(CN2CCC(Oc3cc(COc4ccc(Cl)cc4Cl)ccn3)CC2)nc2ccc(C(=O)O)cc21 [Compound 179, 2-{[4-({4-[(2,4-dichlorophenoxy)methyl]pyridin-2-yl}oxy)piperidin-1-yl]methyl}-1-[(1-ethyl-1H-imidazol-5-yl)methyl]-1H-1,3-benzodiazole-6-carboxylic acid] | < 50 nM
Cc1ccc(OCc2cccc(C(=O)N3CCN(Cc4nc5ccc(C(=O)O)cc5n4C[C@@H]4CCO4)CC3)c2)c(Cl)c1 [Compound 64, 2-[(4-{3-[(2-chloro-4-methylphenoxy)methyl]benzoyl}piperazin-1-yl)methyl]-1-{[(2S)-oxetan-2-yl]methyl}-1H-1,3-benzodiazole-6-carboxylic acid] | 50 to 500 nM
C[C@H]1C[C@@H](Oc2ccnc(COc3ccc(F)cc3F)n2)CCN1Cc1nc2ncc(C(=O)O)cc2n1C[C@@H]1CCO1 [Compound 512, 2-{[(2S,4S)-4-({2-[(2,4-difluorophenoxy)methyl]pyrimidin-4-yl}oxy)-2-methylpiperidin-1-yl]methyl}-1-{[(2S)-oxetan-2-yl]methyl}-1H-imidazo[4,5-b]pyridine-6-carboxylic acid] | > 500 nM
O=C(O)c1cc(F)c2nc(CN3CCC(Oc4ccnc(COc5ccc(F)cc5F)c4)CC3)n(C[C@@H]3CCO3)c2c1 [Compound 496, 2-{[4-({2-[(2,4-difluorophenoxy)methyl]pyridin-4-yl}oxy)piperidin-1-yl]methyl}-4-fluoro-1-{[(2S)-oxetan-2-yl]methyl}-1H-1,3-benzodiazole-6-carboxylic acid] | < 50 nM
O=C(O)c1ccc2nc(CN3CCC(Cc4cc(F)cc(COc5ccc(Cl)cc5Cl)c4)CC3)n(C[C@@H]3CCO3)c2c1 [Compound 126, 2-{[4-({3-[(2,4-dichlorophenoxy)methyl]-5-fluorophenyl}methyl)piperidin-1-yl]methyl}-1-{[(2S)-oxetan-2-yl]methyl}-1H-1,3-benzodiazole-6-carboxylic acid] | 50 to 500 nM
CCn1cncc1Cn1c(CN2CCC(Oc3ccnc(COc4ccc(Cl)cc4CO)c3)CC2)nc2ccc(C(=O)O)cc21 [Compound 287, 2-({4-[(2-{[4-chloro-2-(hydroxymethyl)phenoxy]methyl}pyridin-4-yl)oxy]piperidin-1-yl}methyl)-1-[(1-ethyl-1H-imidazol-5-yl)methyl]-1H-1,3-benzodiazole-6-carboxylic acid] | < 50 nM
O=C(O)c1ccc2nc(CN3CCC(Cc4cccc(COc5ccc(C6CC6)cc5Cl)n4)CC3)n(C[C@@H]3CCO3)c2c1 [Example 152, (S)-2-((4-((6-((2-Chloro-4-cyclopropylphenoxy)methyl)pyridin-2-yl)methyl)piperidin-1-yl)methyl)-1-(oxetan-2-ylmethyl)-1H-benzo[d]imidazole-6-carboxylic acid] | < 50 nM
N#Cc1ccc(OCc2cc(OC3CCN(Cc4nc5ccc(C(=O)O)nc5n4C[C@@H]4CCO4)CC3)ccn2)c(F)c1 [Compound 379] | < 50 nM
O=C(O)c1ccc2nc(CN3CCC(Oc4ccnc(COc5ccc(Cl)cc5Cl)c4)CC3)n(C[C@H]3CCOC3)c2c1 [Compound 169, 2-{[4-({2-[(2,4-dichlorophenoxy)methyl]pyridin-4-yl}oxy)piperidin-1-yl]methyl}-1-{[(3R)-oxolan-3-yl]methyl}-1H-1,3-benzodiazole-6-carboxylic acid] | < 50 nM
O=C(O)c1ccc2nc(CN3CCC(Cc4cccc(COc5ccc(Cl)cc5Cl)c4)CC3)n(C[C@@H]3CCCO3)c2c1 [Compound 151, 2-{[4-({3-[(2,4-dichlorophenoxy)methyl]phenyl}methyl)piperidin-1-yl]methyl}-1-{[(2S)-oxolan-2-yl]methyl}-1H-1,3-benzodiazole-6-carboxylic acid] | < 50 nM
